Consider one compound from patent US20240000950A1, “THERAPEUTIC CURE-PRO COMPOUNDS FOR TARGETED DEGRADATION OF BET DOMAIN PROTEINS, AND METHODS OF MAKING AND USING THEM” (CORNELL UNIVERSITY, priority 2020, published 2024).

Entries after “also recorded” stand apart in the source; their conditions may differ.

What all share (type): cell-based
Assay [1] relates to caspase 3/7 activity in Namalwa cells. The experiment in a line: Caspase-Glo 3/7 assay, Namalwa cells. The settings on record: 24 h, co-treated with VHL ligand VHL298. As to the method: All cell lines were purchased from ATCC or DSMZ and grown at 37° C. with 5% C02. […]
(§1) Caspase-glo® assay (Promega) was conducted following the manufacturer's recommendations. […] After a 24 h incubation, 100 μl of the […] substrate was added per well and luminescence was read on a Spectramax M5 (Molecular Devices).
Namalwa cells (5×104) were treated for 24 hours with the compounds solubilized in DMSO. FIG. 57 is a bar graph depiction of fold increase of apoptosis assessed via caspase 3/7 activity using the Caspase-Glo assay (Promega) described above.
(§2) Molm-13 (FIG. 76A) or Namalwa (FIG. 76B) cells (5×104) were treated for 24 hours with the compounds solubilized in DMSO in white 96 well plates (10 nM-10 μM solubilized in DMSO). FIG. 76 is a bar graph depiction of fold increase of apoptosis assessed via caspase 3/7 activity using the Caspase-Glo assay (Promega) described above.

In assay [2] the target is T1, BRD4 (Homo sapiens, UniProt O60885). In words: CURE-PRO-mediated BRD4 degradation in MCF7 cells with VHL ligands, WES (ProteinSimple). Further details: endogenous in cells; host or cells: HeLa, MCF7 or HCT116. As to the method: (§3) All cell lines were purchased from ATCC or DSMZ and grown at 37° C. with 5% C02. Human HeLa cells were cultured in complete growth medium (Dulbecco's modified Eagle's medium (DMEM) supplemented with 10% FBS); MCF7 cells were cultured in complete growth medium (Dulbecco's modified Eagle's medium (DMEM) supplemented with 10% FBS and 0.01 mg/ml human recombinant insulin (Sigma Aldrich); Namalwa and MOLM-13 cells were cultured in complete growth medium (RPMI 1640 medium supplemented with 10% FBS); MV-4-11 were cultured in complete growth medium (Iscove's Modified Dulbecco's medium, supplemented with 10% FBS); HCT116 cells were cultured in complete growth medium (McCoy's 5a Medium supplemented with 10% FBS). For cellular degradation of BRD4 studies, cells were seeded in a 12-well plate at 70-80% confluency, allowed to attach overnight, and incubated with the indicated compounds for the indicated time. […]
WES Simple analysis was performed on WES system (ProteinSimple-Biotechne) according to the manufacturer's instructions. Total protein concentrations of cell lysates were determined by the Pierce BCA kit (Thermo Fisher). […]
MCF7 cells (3×10^6) were treated for 4-24 hours continually (FIG. 72), or treated for 4 h, washed and incubated for a further 4-24 h with the compounds solubilized in DMSO. […] The total protein concentration was quantified by the BCA method (ThermoFisher Sciences). […]

Assay [3] has as its system Molm-13 cells. In words: CellTiter-Glo cell viability, Molm-13 cells. As to the method: as §3, with “FBS).” for “FBS). For cellular degradation of BRD4 studies, cells were seeded in a 12-well plate at 70-80% confluency, allowed to attach overnight, and incubated with the indicated compounds for the indicated time.”
CellTiter-Glo® 2.0 Cell Viability Assay (Promega) was carried out following the manufacturer's recommendations. […] After a 72 h incubation, 100 ul of the CellTiter-Glo® substrate was added per well and luminescence was read on a Spectramax M5 (Molecular Devices). […]
Molm-13 cells (1×104) were treated for 24 (FIG. 77A) or 72 (FIG. 77B) hours were treated in white 96 well plates with the compounds (10 nM-10 μM solubilized in DMSO). After indicated times cell viability was assessed using the CellTiter-Glo® Luminescent Cell Viability Assay (Promega) and the signal detected on a SpectraMax M5 (Molecular Devices).
(In general: ATP-based viability assays read luminescence as a measure of living cells.)

Assay [4] concerns caspase 3/7 activity in MOLM13 cells. The experiment in a line: Caspase-Glo 3/7 assay, Molm-13 cells. The conditions noted are these: 24 h, co-treated with VHL ligand VHL298. As to the method: as §3, with “FBS).” for “FBS). For cellular degradation of BRD4 studies, cells were seeded in a 12-well plate at 70-80% confluency, allowed to attach overnight, and incubated with the indicated compounds for the indicated time.”
as §1, §2

Assay [5] concerns the target T1, BRD4. In words: Summary of E3 ligase directed degradation of BRD4, estimated from Western Blot or WES (Tables 1-6). Further details: endogenous in cells; host or cells: HeLa, MCF7 or HCT116. The conditions noted are these: Table 3; aromatic 1,2-diol-containing VHL ligand drawn as drawing 442 (by the text apparently 8305). The gist of the method:
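HeLa, MCF7 or HCT116 cells treated 24 h with compounds in DMSO, lysed in RIPA buffer; BRD4 levels read by Western blot (ECL detection) or capillary WES with HRP detection. Check mark denotes 30% to 70% or higher protein degradation.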

As to `CCNC(=O)C[C@@H]1N=C(c2ccc(Cl)cc2)c2cc(B(O)O)ccc2-n2c(C)nnc21` [BRD-E50, ((4S)-6-(4-chlorophenyl)-4-(2-(ethylamino)-2-oxoethyl)-1-methyl-4H-benzo[f][1,2,4]triazolo[4,3-a] [1,4]diazepin-8-yl)boronic acid], the “caspase 3/7 activity” value in assay [1] and in assay [4] was “does not increase caspase activity” throughout. In assay [2] (10 μM each with VHL ligand 8305, VHL298 preincubated at equimolar concentration), the “BRD4 degradation after pre-incubation with VHL298” value is reported as “attenuates CURE-PRO mediated BRD4 degradation; also recorded: No degradation is noted; also recorded: inhibited CURE-PRO mediated degradation; also recorded: inhibits the degradation of BRD4”. Further, in assay [2] (10 μM each, 1:1 with VHL ligand 8305, 4-24 h, with washout where stated), the BRD4 degradation entry is “directs degradation of BRD4 as early as 4 h, with sustained degradation 24 h after wash out; also recorded: marked BRD4 degradation after 4 h with sustained degradation for up to 8 h after drugs are washed out”. Moreover, in assay [3] (24 h and 72 h, 10 nM-10 μM, co-dosed 1:1 with VHL ligand 8305), the “loss of cell viability (CellTiter-Glo)” value is given as “marked loss in cell viability; also recorded: a greater loss of cell viability”. Also, in assay [3] (co-treated with VHL ligand VHL298), the “cell viability (CellTiter-Glo)” value is “decreases levels of cell viability to similar levels of BRD-E50 treatment alone”. The “Degradation of BRD4, combination with VHL ligand [drawing 442]” value in assay [5] is given as “✓ (A black check mark indicates efficacy of 30% to 70% or higher protein degradation)”.
